Source: ChEMBL document CHEMBL1201862, “PubChem BioAssay data set” (2004)
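96-well plates; 48 h exposure; 5 concentrations. Endpoints by linear interpolation between flanking doses. Not reached: highest tested concentration assigned. Here, GI50 denotes the concentration required for 50% inhibition of growth.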 The source made the active and inactive calls. No stated cut-off is given here; in the data, active = GI50 up to about 1.1 µM and inactive = higher.

Tests used:
Experiment in all cases: NCI-60 cell line screen, 48 h
[1] = tested on: ACHN
[2] = tested on: EKVX
[3] = tested on: HCT-15
[4] = tested on: HOP-62
[5] = tested on: K562
[6] = tested on: LOX IMVI
[7] = tested on: MOLT-4
[8] = tested on: NCI-H23
[9] = tested on: NCI-H522
[10] = tested on: OVCAR-4
[11] = tested on: OVCAR-5
[12] = tested on: OVCAR-8
[13] = tested on: SK-MEL-2
[14] = tested on: SK-MEL-5
[15] = tested on: SK-OV-3
[16] = tested on: SN12C
[17] = tested on: TK-10
[18] = tested on: UACC-257
[19] = tested on: UACC-62

For `CN(N=O)C(=O)NC(CCCCNC(=O)OCc1ccccc1)C(=O)OCc1ccccc1` (stereo unspecified), the GI50 [1] was 17.7 µM (inactive), the GI50 [2] was > 100 µM (inactive) and the GI50 [3] was 36 µM. For the same compound, the GI50 [4] was 28.5 µM (inactive), the GI50 [5] was 48.8 µM (inactive) and the GI50 [6] was 17.4 µM (inactive). The GI50 [7] was 26.6 µM (inactive), the GI50 [8] was 20.7 µM (inactive) and the GI50 [9] was 13.1 µM (inactive). For the same compound, the GI50 [10] was 71.1 µM (inactive), the GI50 [11] was > 100 µM (inactive) and the GI50 [12] was 19.2 µM (inactive). For the same compound, the GI50 [13] was 30.1 µM (inactive), the GI50 [14] was 20.4 µM (inactive) and the GI50 [15] was > 100 µM (inactive). The GI50 [16] was 17.6 µM (inactive), the GI50 [17] was 33.4 µM (inactive) and the GI50 [18] was 16.5 µM (inactive). The GI50 [19] was 13.7 µM (inactive).
In the case of `O=C1O[C@@H](c2ccc3c(c2)OCO3)C2C(=O)O[C@@H](c3ccc4c(c3)OCO4)C12` (stereo partly specified), the GI50 [1] is reported as > 100 µM (inactive), the GI50 [2] is reported as > 100 µM (inactive) and the GI50 [3] is reported as greater than 100 µM. The GI50 [4] was > 100 µM (inactive), the GI50 [5] was > 100 µM (inactive) and the GI50 [6] was > 100 µM (inactive). For the same compound, the GI50 [7] was > 100 µM (inactive), the GI50 [8] was > 100 µM (inactive) and the GI50 [9] was > 100 µM (inactive). For the same compound, the GI50 [10] was > 100 µM (inactive), the GI50 [12] was > 100 µM (inactive) and the GI50 [13] was > 100 µM (inactive). For the same compound, the GI50 [14] was > 100 µM (inactive), the GI50 [15] was > 100 µM (inactive) and the GI50 [16] was > 100 µM (inactive). For the same compound, the GI50 [17] was > 100 µM (inactive), the GI50 [18] was > 100 µM (inactive) and the GI50 [19] was > 100 µM (inactive).
For `Cc1cccc(NC(=O)CSc2nnc(-c3ccc(/N=C\c4ccc(Cl)cc4)cc3)o2)c1`, the GI50 [1] was > 100 µM (inactive), the GI50 [2] was > 100 µM (inactive) and the GI50 [3] was greater than 100 µM. The GI50 [4] was > 100 µM (inactive), the GI50 [5] was > 100 µM (inactive) and the GI50 [6] was 72.9 µM (inactive). For the same compound, the GI50 [7] was > 100 µM (inactive), the GI50 [8] was > 100 µM (inactive) and the GI50 [9] was 38.2 µM (inactive). For the same compound, the GI50 [10] was 69.2 µM (inactive), the GI50 [12] was > 100 µM (inactive) and the GI50 [13] was > 100 µM (inactive). The GI50 [14] was > 100 µM (inactive), the GI50 [15] was > 100 µM (inactive) and the GI50 [16] was > 100 µM (inactive). For the same compound, the GI50 [17] was > 100 µM (inactive), the GI50 [18] was > 100 µM (inactive) and the GI50 [19] was > 100 µM (inactive).
In the case of `CCCCCCCCCCCCOC(=S)NCCCC`, the GI50 [1] is reported as 22.4 µM (inactive), the GI50 [2] is reported as 18.3 µM (inactive) and the GI50 [3] is reported as 19.5 µM. The GI50 [4] was 35.6 µM (inactive), the GI50 [5] was 19.3 µM (inactive) and the GI50 [6] was 17 µM (inactive). For the same compound, the GI50 [7] was 15.9 µM (inactive), the GI50 [8] was 23 µM (inactive) and the GI50 [9] was 14.5 µM (inactive). For the same compound, the GI50 [10] was 25.8 µM (inactive), the GI50 [11] was 19.8 µM (inactive) and the GI50 [12] was 18.7 µM (inactive). For the same compound, the GI50 [13] was 18.7 µM (inactive), the GI50 [15] was 18.7 µM (inactive) and the GI50 [16] was 19.9 µM (inactive). For the same compound, the GI50 [17] was 35.3 µM (inactive), the GI50 [18] was 16.5 µM (inactive) and the GI50 [19] was 16.7 µM (inactive).
With `CCOC(=O)C1=C(C)N(NC(=O)Nc2ccccc2)C(=O)C1=P(c1ccccc1)(c1ccccc1)c1ccccc1` the GI50 [1] was 36.6 µM (inactive), the GI50 [2] was 54.3 µM (inactive) and the GI50 [3] was 27.5 µM. The GI50 [4] was > 100 µM (inactive), the GI50 [5] was 26.6 µM (inactive) and the GI50 [6] was 41.2 µM (inactive). For the same compound, the GI50 [7] was 18.8 µM (inactive), the GI50 [8] was 41.6 µM (inactive) and the GI50 [9] was 19.4 µM (inactive). For the same compound, the GI50 [10] was 35.2 µM (inactive), the GI50 [11] was > 100 µM (inactive) and the GI50 [12] was 40 µM (inactive). The GI50 [13] was 22.4 µM (inactive), the GI50 [14] was 33.8 µM (inactive) and the GI50 [15] was > 100 µM (inactive). For the same compound, the GI50 [16] was 28.1 µM (inactive), the GI50 [17] was 56.5 µM (inactive) and the GI50 [18] was 45.7 µM (inactive). For the same compound, the GI50 [19] was 25.6 µM (inactive).
With `Nc1ccc(/N=N/c2ccc(-c3ccc(/N=N/c4c(S(=O)(=O)O)cc5cc(S(=O)(=O)O)c(/N=N/c6ccc([N+](=O)[O-])cc6)c(N)c5c4O)cc3)cc2)c2cc(S(=O)(=O)O)ccc12` the GI50 [1] was > 100 µM (inactive), the GI50 [2] was > 100 µM (inactive) and the GI50 [3] was greater than 100 µM. The GI50 [4] was > 100 µM (inactive), the GI50 [5] was > 100 µM (inactive) and the GI50 [6] was > 100 µM (inactive). The GI50 [7] was > 100 µM (inactive), the GI50 [8] was > 100 µM (inactive) and the GI50 [9] was > 100 µM (inactive). The GI50 [10] was > 100 µM (inactive), the GI50 [11] was > 100 µM (inactive) and the GI50 [12] was > 100 µM (inactive). For the same compound, the GI50 [13] was > 100 µM (inactive), the GI50 [14] was > 100 µM (inactive) and the GI50 [15] was > 100 µM (inactive). The GI50 [16] was > 100 µM (inactive), the GI50 [17] was > 100 µM (inactive) and the GI50 [18] was > 100 µM (inactive). The GI50 [19] was > 100 µM (inactive).
